{"source": "patent US8815233B2", "about": "“Method for treating pervasive development disorders” (Curemark LLC, priority 1999, dated 2014)", "key": {"autistic children [1]": {"tested_on": "autistic children", "test": "Fecal Chymotrypsin Test after secretin infusion in autistic children", "format": "in vivo, human", "experimental": "In this experiment, 16 children diagnosed as having autism were administered the following Fecal Chymotrypsin Test in accordance with an embodiment of the invention. First, approximately 2 grams of stool were collected from each child and placed in a sterile container (although it is to be understood that any quantity of stool may be collected, as 2 grams of stool is not a required amount). Each stool sample was then analyzed using, e.g., an enzymatic photospectrometry analysis as is known by those skilled in the art, to determine the level of fecal chymotrypsin in the stool. Although the enzymatic photospectrophotometry process is preferred, any suitable conventional method may be used for measuring the fecal chymotrypsin levels. The measured chymotrypsin levels of the 16 autistic children are illustrated in FIG. 13.\nAfter determining the chymotrypsin levels of the stools, each of these levels were compared with threshold chymotrypsin levels to determine if the child was likely to benefit from secretin administration. By way of example, with the fecal chymotrypsin tests of the stool samples being performed at 30° C., normal levels of chymotrypsin are deemed to lie above 8.4 U/gram, whereas pathologically abnormal levels are deemed to lie below 4.2 U/gram. In addition, chymotrypsin levels between 8.4 U/gram and 4.2 U/gram are considered equivocal, and further testing of the individual's fecal chymotrypsin levels over a period of time should be performed.\n(§1) For each of the 16 autistic children tested, a preferred secretin infusion process according to the present invention was performed involving the administering of 1 U/kg of body weight of Secretin-Ferring for a period of nine months at intervals of approximately 6 weeks. In addition, another CARS test was administered to each of the 16 autistic children 3 weeks post secretin administration to determine if their autism had changed post infusion.\nA preferred secretin infusion process includes the initial step of prepping an arm of the candidate child with an IV injection of saline. A test dose of 1 U of Secretin-Ferring is then administered to the child. Approximately one minute after infusion, the child is examined for signs of allergic reaction including rash, increased heart rate, and increase of blood pressure. […] Subsequently, each child receives a 1 U/kg of body weight infusion of Secretin-Ferring approximately every 6 weeks for 9 months. […]\nIn this experiment, 37 autistic children with abnormal fecal chymotrypsin levels were administered secretin over the course of 6 months using the secretin infusion process described above. Their fecal chymotrypsin (FC) levels were measured weekly using the fecal chymotrypsin test described above."}, "autistic children [2]": {"tested_on": "autistic children", "test": "CARS (Childhood Autism Rating Scale) test pre/post secretin in autistic children", "format": "in vivo, human", "settings": "16 autistic children", "experimental": "Upon determining that a given child was likely to benefit from secretin administration based on the results of the fecal chymotrypsin test, the child was administered a CARS (Childhood Autism Rating Scale) test prior to being scheduled for secretin infusion.\nas §1\nA preferred secretin infusion process includes the initial step of prepping an arm of the candidate child with an IV injection of saline. A test dose of 1 U of Secretin-Ferring is then administered to the child. Approximately one minute after infusion, the child is examined for signs of allergic reaction including rash, increased heart rate, and increase of blood pressure. […] Subsequently, each child receives a 1 U/kg of body weight infusion of Secretin-Ferring approximately every 6 weeks for 9 months. It is to be understood that any commercially available form of secretin may be used."}, "[3]": {"tested_on": "children diagnosed with Autism", "settings": "Horvath et al. 1998; secretin given as diagnostic procedure during upper gastrointestinal endoscopy; cited from earlier work"}}, "data": [{"substance": "secretin", "values": [{"measurement": "fecal chymotrypsin level post-secretin administration", "setting": "autistic children [1]; each of 16 autistic children, approx. one week after first infusion, 1 U/kg IV Secretin-Ferring, vs pre-secretin (all abnormal)", "result": "increased"}, {"measurement": "# Autistic Children w/Equivocal FC levels", "setting": "autistic children [1]; of 37 children, 6 months post-secretin, pre-secretin 0, equivocal 4.2-8.4 U/gram", "result": 2}, {"measurement": "# Autistic Children w/normal FC levels", "setting": "autistic children [1]; of 37 children, 6 months post-secretin, pre-secretin 0, normal above 8.4 U/gram", "result": 34}, {"measurement": "# Autistic Children w/Abnormal FC levels", "setting": "autistic children [1]; of 37 children, 6 months post-secretin, pre-secretin 37, abnormal below 4.2 U/gram", "result": 1}, {"measurement": "CARS component scores (except fear)", "setting": "autistic children [2]; 3 weeks post secretin infusion", "result": "improvement"}, {"measurement": "CARS fear component score", "setting": "autistic children [2]; 3 weeks post secretin infusion", "result": "increased"}, {"measurement": "CARS scores (overall)", "setting": "autistic children [2]; approx. 3 weeks after first secretin administration, 1 U/kg IV, vs pre-secretin", "result": "overall decrease"}, {"measurement": "symptoms associated with Autism after secretin administration", "setting": "[3]", "result": "ameliorating the symptoms associated with Autism"}]}]}
